Data set [1] is described as follows: logP by HPLC (EEC Directive 79/831 Annex V. A8, gradient method, acetonitrile/0.1% aqueous phosphoric acid). Format: physicochemical. How it is done:
*The logP values were determined in accordance with EEC Directive 79/831
Annex V. A8 by HPLC (gradient method, acetonitrile/0.1% aqueous phosphoric

In another data set the test system is Venturia inaequalis. Kind of data set: Venturia test (apple)/protective. The following applies: 288 h, read-out: Efficacy, apple, protective, 10 g/ha, 12 days after inoculation.
The subject of the next data set is Plasmopara viticola. The data set is described as follows: Plasmopara test (grapevine)/protective. The following applies: 144 h, read-out: Efficacy, grapevine, protective, 100 g/ha, 6 days after inoculation.

In general, chromatographic logP refers to lipophilicity estimated from chromatographic retention. A high value points to higher lipophilicity.

Experimental for Plasmopara viticola: Solvent: 47 parts by weight of acetone
(§1) Emulsifier: 3 parts by weight of alkylaryl polyglycol ether
After the spray coating has dried on, the plants are inoculated with an aqueous spore suspension of Plasmopara viticola and then remain in an incubation cabin at approximately 20° C. and 100% relative atmospheric humidity for 1 day. The plants are subsequently placed in a greenhouse at approximately 21° C. and approximately 90% relative atmospheric humidity for 5 days. The plants are then moistened and placed in an incubation cabin for 1 day.
Evaluation is carried out 6 days after the inoculation.
Experimental for Venturia inaequalis: Solvent: 47 parts by weight of acetone
as §1
After the spray coating has dried on, the plants are inoculated with aqueous conidia suspension of the causative organism of apple scab Venturia inaequalis and then remain in an incubation cabin at approximately 20° C. and 100% relative atmospheric humidity for 1 day.
The plants are then placed in a greenhouse at approximately 21° C. and a relative atmospheric humidity of approximately 90%.
Evaluation is carried out 12 days after the inoculation.

`CON=C(C1=NOCCN1)c1ccccc1Oc1ncnc(Oc2ccccc2C(C)C)c1F` [Example 13]: in data set [1], the chromatographic logP stood at 3.59. In addition, the pest or weed control at 10 g/ha in the data set with Venturia inaequalis was ≥ 90%. The pest or weed control at 100 g/ha with Plasmopara viticola was ≥ 90%.

`CON=C(C1=NOCCN1)c1ccccc1Oc1ncnc(Oc2cccc(C)c2Cl)c1F` [Example 59] had a chromatographic logP in data set [1] of 3.34. For the same compound, the pest or weed control at 10 g/ha in the data set on Venturia inaequalis is ≥ 90%. Further, in the data set with Plasmopara viticola, the pest or weed control at 100 g/ha is ≥ 90%.

`CON=C(C1=NOCCN1)c1ccccc1Oc1ncnc(Oc2ccccc2F)c1F` [Example 10] returned a chromatographic logP in data set [1] of 2.85. In addition, the pest or weed control at 10 g/ha in the data set with Venturia inaequalis is ≥ 90%. Moreover, the pest or weed control at 100 g/ha in the data set with Plasmopara viticola is ≥ 90%.

Consider `CON=C(C1=NOCCN1)c1ccccc1Oc1ncnc(Oc2ccccc2C2CCCC2)c1F` [Example 17], for which, in data set [1], the chromatographic logP was 4.01. Moreover, in the data set with Venturia inaequalis, the pest or weed control at 10 g/ha is ≥ 90%. For the same compound, the pest or weed control at 100 g/ha with Plasmopara viticola is ≥ 90%.

`CCc1ccccc1Oc1ncnc(Oc2ccccc2C(=NOC)C2=NOCCN2)c1F` [Example 11]: the chromatographic logP in data set [1] turned out to be 3.32. Also, the pest or weed control at 10 g/ha in the data set on Venturia inaequalis was ≥ 90%. Moreover, the pest or weed control at 100 g/ha in the data set on Plasmopara viticola is ≥ 90%.

(Values after patent US6251899A, “Methoximinomethyloxadiazines” (Bayer Aktiengesellschaft, priority 1997, dated 2001).)
